Several values for one entry are separate records, joined by “and”; a condition that tells them apart may be missing. Equal values may be shown once. Entries after “also recorded” stand apart in the source; their conditions may differ. Read-outs that look alike come from different tables or passages of the source.
Key:
Assay type in all cases: in vivo
[1] = test system: coronary arteries in humans with coronary artery disease; assay: FFR during continuous intracoronary infusion via microcatheter (Example 3); conditions: for % of patients with FFR ≦ 0.8 / adverse effects during IC continuous infusion: microcatheter study; for adverse effects during IC continuous infusion: 10 patients; for optimal dose for achieving maximal coronary hyperemia and thereby the lowest FFR: FIG. 5
Description: As described previously, inducing stable maximal coronary hyperemia is essential for measurement of fractional flow reserve (FFR). This second experiment in a similar patient group evaluated the differential efficacy of intracoronary (IC) continuous adenosine infusion vs. IC continuous uridine triphosphate (UTP) infusion via a microcatheter for inducing steady state maximal coronary hyperemia. The present study was designed to evaluate the safety and effectiveness of the equimolar concentrations of UTP vs. adenosine infusion for use in the FFR method. Time to achievement of steady-state, impact of maximal hyperemia (lowest FFR) for the different compounds and side effects were recorded in 10 patients with intermediate coronary lesions. FFR was measured consecutively by IC continuous adenosine or UTP infusion using a microcatheter to bypass the proximal pressure transducer. The IC microcatheter (Progreat Microcatheter System, Terumo, Japan) used was positioned at the coronary ostium, and FFR was then measured by increasing IC continuous adenosine or UTP infusion rates in equimolar concentrations from 10 to 400 μg/min via the microcatheter.
After femoral catheterization, coronary angiography was performed with the standard femoral approach. Heparin was administered according to standard procedures.
Intracoronary nitroglycerin (0.2-0.3 mg) was administered before the control angiograms were made in the microcatheter study. Heart rate and arterial pressure were continuously monitored throughout the procedure. After a guiding catheter (5F catheter, Cordis Corp.) without side holes was positioned at the coronary ostium, coronary angiograms were obtained from multiple projections. Quantitative coronary analysis was performed by using an independent analyzer blinded to the results of FFR using a computer-assisted, automated computerized edge-detection algorithm (Siemens Medical System). The external diameter of the contrast-filled catheter was used as a calibration standard. Minimal luminal diameter, vessel diameter of the reference segment, and the percent diameter stenosis at end diastole were measured from the worst-view trace. After coronary angiography, a 0.014-in. pressure wire (Combowire, Volcano Corporation, US) was advanced distally to the stenosis through a 6F guiding catheter. In the microcatheter study, an IC bolus injection of nitroglycerin (0.2-0.3 mg) was given before advancing the pressure wire through the stenosis in order to avoid any mechanically-induced coronary vasoconstriction. The pressure wire was externally calibrated and then advanced to the distal tip of the catheter. It was verified whether equal pressure was recorded at both the catheter and the pressure wire. The pressure wire was advanced through the coronary catheter, introduced into the coronary artery, and positioned distal to the stenosis.
Distal coronary pressure (Pd) and proximal coronary pressure (Pa) were measured at baseline and at maximal hyperemia (adenosine vs. UTP) simultaneously. Fractional flow reserve was calculated by dividing mean Pd by mean Pa during maximal hyperemia. The time to optimal vasodilatation (time needed to reach >90% of the minimal value of Pd/Pa after administration of the adenosine or UTP) was computed in order to assess whether procedure time was prolonged. The hyperemic stimuli were given as follows: an IC continuous infusion of adenosine or UTP in incremental doses of 10, 20, 40, 80, 160, 240, […] and 400 μg/min, in both the left and right coronary artery depending upon lesion anatomy. The dosages were increased stepwise by IC continuous infusion with the microcatheter where the stepwise dose increase was recorded continuously without breaks. After each stepwise increase, FFR and CFR were recorded automatically. The next hyperemic stimulus UTP vs adenosine was given when Pa, Pd, and heart rate returned to their baseline values.

[2] = Kinetics of UTP in the circulation; conditions: for half-life: in the circulation, read-out: terminal half-life (converted)
[3] = test system: infarct area during acute myocardial infarction; assay: ADP or UTP infusion during myocardial infarction in pigs (unpublished); conditions: infused during acute myocardial infarction, unpublished results
Description: This is clearly in contrast to previous findings, but is more clinically relevant as most cardiac patients are older. […] This conclusion is also supported by another study by the present inventor in pigs where ADP or UTP was infused during myocardial infarction. […] Therefore, the previous assumptions in patent application WO 2007/065437 relating to the regulation of purinergic receptor activity to modulate vascular tone, particularly for treating hemodynamic conditions by overriding vasoconstriction activity, which could potentially have clinical applications for treatment with UTP agonists or antagonists, is incorrect.

## O=c1ccn([C@@H]2O[C@H](COP(=O)(O)OP(=O)(O)OP(=O)(O)O)C(O)[C@@H]2O)c(=O)[nH]1 (stereo partly shown) [UTP, Uridine 5-triphosphate]
[1]; P<0.05
  FFR in comparison to IC adenosine infusion: significantly lower
[1]; in vivo
  steady-stable hyperemia lasted longer compared to adenosine infusion: ~20 s
[1]; individual patients (row = patient no.), IC continuous infusion 10 μg/min, microcatheter
  FFR: 0.72 and 0.95 and 0.84
[1]; individual patients, 20 μg/min
  FFR: 0.71 and 0.95
[1]; individual patients, 40 μg/min
  FFR: 0.72 and 0.95 and 0.83
[1]; individual patients, 80 μg/min
  FFR: 0.73 and 0.79 and 0.88 and 0.56 and 0.71 and 0.97 and 0.83
[1]; individual patients, 160 μg/min
  FFR: 0.90 and 0.73 and 0.79 and 0.86 and 0.56 and 0.71 and 0.92 and 0.83
[1]; individual patients, 240 μg/min
  FFR: 0.89 (2×) and 0.73 and 0.79 and 0.87 and 0.55
[1]; individual patients, 400 μg/min
  FFR: 0.90 and 0.92 and 0.56
[1]; mean of patients, 10 μg/min
  FFR Mean: 0.84
[1]; mean, 20 μg/min
  FFR Mean: 0.83
[1]; mean, 40 μg/min
  FFR Mean: 0.83
[1]; mean, 80 μg/min
  FFR Mean: 0.78
[1]; mean, 160 μg/min
  FFR Mean: 0.79
[1]; mean, 240 μg/min
  FFR Mean: 0.79
[1]; mean, 320 μg/min
  FFR Mean: 0.79
[1]; mean, 400 μg/min
  FFR Mean: 0.79
[1]; 80 μg/min (n = 8)
  % of patients with FFR ≦ 0.8: 62 % of patients
[1]; 160 μg/min (n = 6)
  % of patients with FFR ≦ 0.8: 50 % of patients
[1]; 320 μg/min (n = 9)
  % of patients with FFR ≦ 0.8: 44 % of patients
[1]; 400 μg/min (n = 3)
  % of patients with FFR ≦ 0.8: 33 % of patients
[1]
  adverse effects during IC continuous infusion: None of the patients had chest pain in the UTP group; also recorded: All patients tolerated UTP without side effects
[1]; microcatheter
  optimal dose for achieving maximal coronary hyperemia and thereby the lowest FFR: approximately 80 μg/min
[1]; versus IC continuous adenosine infusion
  induction time to optimal coronary hyperemia: shorter
[2]; blood (the circulation)
  half-life: ~20 s
[2]; in vivo
  time to peak: 5 s
  half-life: 20 s
[3]
  effect on infarct area: increased the infarct area

## Nc1ncnc2c1ncn2[C@@H]1O[C@H](CO)[C@@H](O)[C@H]1O [adenosine]
[1]; individual patients (row = patient no.), IC continuous infusion 10 μg/min, microcatheter, listed as ADO
  FFR: 0.81 and 0.94 and 0.86 and 0.99
[1]; individual patients, 20 μg/min, listed as ADO
  FFR: 0.75 and 0.94 and 0.95
[1]; individual patients, 40 μg/min, listed as ADO
  FFR: 0.73 and 0.94 (2×) and 0.82
[1]; individual patients, 80 μg/min, listed as ADO
  FFR: 0.83 and 0.95 and 0.76 and 0.71 and 0.94 and 0.82 and 0.88
[1]; individual patients, 160 μg/min, listed as ADO
  FFR: 0.80 and 0.95 (2×) and 0.60 and 0.68 and 0.85 and 0.96 and 0.75
[1]; individual patients, 240 μg/min, listed as ADO
  FFR: 0.81 and 0.94 and 0.60 and 0.87 and 0.91 and 0.71
[1]; individual patients, 400 μg/min, listed as ADO
  FFR: 0.56 and 1.01 and 0.89
[1]; mean of patients, 10 μg/min
  FFR Mean: 0.90
[1]; mean, 20 μg/min
  FFR Mean: 0.88
[1]; mean, 40 μg/min
  FFR Mean: 0.86
[1]; mean, 80 μg/min
  FFR Mean: 0.84
[1]; mean, 160 μg/min
  FFR Mean: 0.82
[1]; mean, 240 μg/min
  FFR Mean: 0.81
[1]; mean, 320 μg/min
  FFR Mean: 0.82
[1]; mean, 400 μg/min
  FFR Mean: 0.82
[1]; 80 μg/min (n = 8)
  % of patients with FFR ≦ 0.8: 37 % of patients
[1]; 160 μg/min (n = 6)
  % of patients with FFR ≦ 0.8: 33 % of patients
[1]; 320 μg/min (n = 9)
  % of patients with FFR ≦ 0.8: 44 % of patients
[1]; 400 μg/min (n = 3)
  % of patients with FFR ≦ 0.8: 33 % of patients
[1]
  adverse effects during IC continuous infusion: nearly all felt angina in the adenosine group; also recorded: some patients had a transient second degree A-V block; also recorded: nearly all patients experienced side effects
[1]; microcatheter
  optimal dose for achieving maximal coronary hyperemia and thereby the lowest FFR: ~240 µg/min
